In assay [1] the test system is Mus musculus. Put plainly: In vivo activity tested against C3H mice bearing mammary adenocarcinoma -17/ADR tumor measured as body weight loss at 216 mg/kg (po). It counts as functional.
Assay [2] relates to Mus musculus. Description: In vivo activity tested against C3H mice bearing panc-03 murine tumor measured as body weight loss at 144 mg/kg (po). It counts as functional.
For assay [3], the system named is Mus musculus. Description: In vivo activity tested against C3H mice bearing mammary adenocarcinoma -17/ADR tumor measured as % treated/control calculated at 216 mg/kg (po). It counts as functional.
Assay [4] has as its system Mus musculus. Put plainly: In vivo activity tested against C3H mice bearing panc-03 murine tumor measured as log Kill value was based on tumors that grew at 144 mg/kg (po). Also noted: dose 144 mg/kg. It counts as functional, organism-based.
Assay [5] relates to Mus musculus. Put plainly: In vivo activity tested against C3H mice bearing panc-03 murine tumor measured as % treated/control calculated at 144 mg/kg (po). It counts as functional.
The subject of assay [6] is Mus musculus. Description: In vivo activity tested against C3H mice bearing mammary adenocarcinoma -17/ADR tumor measured as log Kill value was based on tumors that grew at 216 mg/kg (po). It counts as functional, organism-based. Also noted: dose 216 mg/kg.
Assay [7] concerns Mus musculus. Description: In vivo activity tested against C3H mice bearing panc-03 murine tumor measured as % treated/control calculated at 530 mg/kg (po). It counts as functional.
For assay [8], the system named is Mus musculus. Description: In vivo activity tested against C3H mice bearing panc-03 murine tumor measured as body weight loss at 530 mg/kg (po). It counts as functional.
Assay [9] has as its system Mus musculus. Description: In vivo activity tested against C3H mice bearing panc-03 murine tumor measured as log Kill value was based on tumors that grew at 530 mg/kg (po). It counts as functional, organism-based. Set-up: dose 530 mg/kg.
The test system of assay [10] is Mus musculus. Description: In vivo activity tested against C3H mice bearing colon adenocarcinoma -38(colon-38) tumor measured as body weight loss at 2686 mg/kg (po). It counts as functional.
Assay [11] relates to Mus musculus. Put plainly: In vivo activity tested against C3H mice bearing colon adenocarcinoma -38(colon-38) tumor measured as % treated/control calculated at 2686 mg/kg (po). It counts as functional.
The test system of assay [12] is Mus musculus. Put plainly: In vivo activity tested against C3H mice bearing colon adenocarcinoma -38(colon-38) tumor measured as activity rating at 2686 mg/kg (po). It counts as functional.
Assay [13] has as its system Mus musculus. Put plainly: In vivo activity tested against C3H mice bearing colon adenocarcinoma -38(colon-38) tumor measured as log Kill value was based on tumors that grew at 2686 mg/kg (po). It counts as functional, organism-based. Also noted: dose 2686 mg/kg.
Assay [14] has as its system Mus musculus. Description: In vivo activity tested against C3H mice bearing panc-03 murine tumor measured as % treated/control calculated at 939 mg/kg (po). It counts as functional.
Assay [15] has as its system Mus musculus. Description: In vivo activity tested against C3H mice bearing panc-03 murine tumor measured as body weight loss at 939 mg/kg (po). It counts as functional.
For assay [16], the system named is Mus musculus. Description: In vivo activity tested against C3H mice bearing panc-03 murine tumor measured as log Kill value was based on tumors that grew at 939 mg/kg (po). It counts as functional, organism-based. Also noted: dose 939 mg/kg.
Assay [17] relates to Mus musculus. Put plainly: In vivo activity tested against C3H mice bearing colon adenocarcinoma -38(colon-38) tumor measured as body weight loss at 1590 mg/kg (po). It counts as functional.
Assay [18] concerns Mus musculus. Put plainly: In vivo activity tested against C3H mice bearing colon adenocarcinoma -38(colon-38) tumor measured as % treated/control calculated at 1590 mg/kg (po). It counts as functional.
The test system of assay [19] is Mus musculus. Put plainly: In vivo activity tested against C3H mice bearing colon adenocarcinoma -38(colon-38) tumor measured as log Kill value was based on tumors that grew at 1590 mg/kg (po); None. It counts as functional, organism-based. Set-up: dose 1590 mg/kg.
The test system of assay [20] is Mus musculus. Description: In vivo activity tested against C3H mice bearing colon adenocarcinoma -38(colon-38) tumor measured as activity rating at 1590 mg/kg (po). It counts as functional.
Assay [21] relates to Mus musculus. Put plainly: In vivo activity tested against C3H mice bearing colon adenocarcinoma -38(colon-38) tumor measured as body weight loss at 1433 mg/kg (po). It counts as functional.
For assay [22], the system named is Mus musculus. Put plainly: In vivo activity tested against C3H mice bearing colon adenocarcinoma -38(colon-38) tumor measured as % treated/control calculated at 1433 mg/kg (po). It counts as functional.
Assay [23] deals with Mus musculus. Put plainly: In vivo activity tested against C3H mice bearing colon adenocarcinoma -38(colon-38) tumor measured as activity rating at 1433 mg/kg (po). It counts as functional.
In assay [24] the test system is Mus musculus. Description: In vivo activity tested against C3H mice bearing colon adenocarcinoma -38(colon-38) tumor measured as log Kill value was based on tumors that grew at 1433 mg/kg (po). It counts as functional, organism-based. Also noted: dose 1433 mg/kg.
In assay [25] the test system is Mus musculus. Put plainly: In vivo activity tested against C3H mice bearing panc-03 murine tumor measured as body weight loss at 1310 mg/kg (po). It counts as functional.
Assay [26] relates to Mus musculus. Put plainly: In vivo activity tested against C3H mice bearing panc-03 murine tumor measured as % treated/control calculated at 1310 mg/kg (po). It counts as functional.
Assay [27] deals with Mus musculus. Description: In vivo activity tested against C3H mice bearing panc-03 murine tumor measured as log Kill value was based on tumors that grew at 1310 mg/kg (po). It counts as functional, organism-based. Set-up: dose 1310 mg/kg.
Assay [28] deals with Mus musculus. Put plainly: In vivo activity tested against C3H mice bearing panc-03 murine tumor measured as % treated/control calculated at 480 mg/kg (po). It counts as functional.
In assay [29] the test system is Mus musculus. Put plainly: In vivo activity tested against C3H mice bearing panc-03 murine tumor measured as body weight loss at 2300 mg/kg (po). It counts as functional.
Assay [30] relates to Mus musculus. Put plainly: In vivo activity tested against C3H mice bearing panc-03 murine tumor measured as body weight loss at 480 mg/kg (po). It counts as functional.
Assay [31] has as its system Mus musculus. Put plainly: In vivo activity tested against C3H mice bearing panc-03 murine tumor measured as log Kill value was based on tumors that grew at 2300 mg/kg (po). It counts as functional, organism-based. Set-up: dose 2300 mg/kg.
For assay [32], the system named is Mus musculus. Put plainly: In vivo activity tested against C3H mice bearing panc-03 murine tumor measured as log Kill value was based on tumors that grew at 480 mg/kg (po). It counts as functional, organism-based. Set-up: dose 480 mg/kg.
Assay [33] deals with Mus musculus. Put plainly: In vivo activity tested against C3H mice bearing panc-03 murine tumor measured as % treated/control calculated at 2300 mg/kg (po). It counts as functional.
Assay [34] relates to Mus musculus. Put plainly: In vivo activity tested against C3H mice bearing panc-03 murine tumor measured as cures at 2300 mg/kg (po); 1/5 cures. It counts as functional.

SMILES strings stand for the structures. The source made the active and inactive calls. The calls are words filed in the database; no cut-off is given here.

One may read the T/C as the result in the treated group divided by that in the control group, in per cent. As to `CC(Oc1ccc(Oc2cnc3ccc(N=[N+]=[N-])cc3n2)cc1)C(=O)O` (centres undefined), the Body weight loss was 4.3% with Mus musculus [1] and 2.9% in the assay on Mus musculus [2]. In addition, the T/C in the assay on Mus musculus [3] is on record as 30%; with Mus musculus [5], 17%. Further, the results for the Log kill in the assay on Mus musculus [4] and in the assay with Mus musculus [6] were 2 and 1, respectively.
With `CC(Oc1ccc(Oc2cnc3ccc(I)cc3n2)cc1)C(=O)O` (centres undefined), in the assay with Mus musculus [7], the T/C is 15%. In addition, in the assay with Mus musculus [8], the Body weight loss was determined as 0%. For the same compound, in the assay on Mus musculus [9], the Log kill was determined as 1.8.
`CCOC(=O)C(C)Oc1ccc(Oc2cnc3cc(Cl)ccc3n2)cc1` (centres undefined) [QUIZALOFOP ETHYL ESTER]: in the assay on Mus musculus [10], the Body weight loss turned out to be 0%. In the assay with Mus musculus [11], the T/C was 61%. This compound also returned an Activity rating in the assay on Mus musculus [12] of less than 0.7. In the assay on Mus musculus [13], the Log kill was 0.42.
With `COc1ccc2ncc(Oc3ccc(OC(C)C(=O)O)cc3)nc2c1Cl` (centres undefined), in the assay on Mus musculus [14], the T/C is given as 76%. Also, the Body weight loss in the assay with Mus musculus [15] was found to be 11.1%. The compound further returned a Log kill in the assay on Mus musculus [16] of 0.
For `CC(Oc1ccc(Oc2cnc3cc(Cl)ccc3n2)cc1)C(=O)O` (centres undefined) [QUIZALOFOP], the Body weight loss with Mus musculus [17] is -4%. Besides, the T/C in the assay on Mus musculus [18] is given as greater than 100%. For the same compound, the Log kill entry in the assay on Mus musculus [19] was “inactive”. For the same compound, the Activity rating with Mus musculus [20] is less than 0.7.
In the case of `COC(=O)C(C)Oc1ccc(Oc2cnc3ccc(F)cc3n2)cc1` (centres undefined), the Body weight loss with Mus musculus [21] is 1%. Further, the T/C in the assay with Mus musculus [22] is given as 34%. This compound also registered an Activity rating in the assay on Mus musculus [23] of 1.2. The same compound showed a Log kill in the assay with Mus musculus [24] of 0.8.
As to `CC(Oc1ccc(Oc2cnc3ccc([N+](=O)[O-])cc3n2)cc1)C(=O)O` (centres undefined), in the assay on Mus musculus [25], the Body weight loss is given as -3.5%. Also, in the assay on Mus musculus [26], the T/C is recorded as 52%. In the assay on Mus musculus [27], this compound came in with a Log kill of 0.6.
For the compound `CNC(=O)C(C)Oc1ccc(Oc2cnc3ccc(Cl)cc3n2)cc1` (centres undefined), the T/C in the assay with Mus musculus [28] was 39%; in the assay on Mus musculus [33], 4%. Further, the results for the Body weight loss in the assay on Mus musculus [29] and in the assay with Mus musculus [30] were -14.5% and -9.3%, respectively. For the same compound, the results for the Log kill in the assay with Mus musculus [31] and in the assay on Mus musculus [32] were 4.2 and 1.2, respectively. In the assay with Mus musculus [34], this compound showed a Cures of 1.
